Measured values reported in patent publication US20220289708A1, “SUBSTITUTED N-PHENYL URACILS, SALTS THEREOF AND THEIR USE AS HERBICIDAL AGENTS” (Bayer Aktiengesellschaft, priority 2019, published 2022).

How the values were obtained:
Type in all cases: in vivo
Pharbitis purpurea [1] = test: Post-emergence herbicidal action; details: application rate 5 g/ha, rated visually after about 3 weeks vs untreated controls
In short: (§1)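 Greenhouse-grown plants in sandy loam treated at one-leaf stage, 2–3 weeks after sowing, with WP or EC formulations sprayed as aqueous suspension/emulsion plus 0.5% additive at 600 l/ha water; rates 20 g/ha and less. Visual rating after about 3 weeks versus untreated controls (100% = plants dead, 0% = like control).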

Echinochloa crus-galli [2] = test: Post-emergence herbicidal action; details: rated visually after about 3 weeks vs untreated controls
In short: as §1

Hordeum murinum = test: Post-emergence herbicidal action; details: application rate 20 g/ha
In short: as §1

Amaranthus retroflexus [3] = test: Post-emergence herbicidal action; details: rated visually after about 3 weeks vs untreated controls
In short: as §1

Polygonum convolvulus [4] = test: Post-emergence herbicidal action; details: application rate 5 g/ha
In short: as §1

Setaria viridis [5] = test: Post-emergence herbicidal action; details: application rate 5 g/ha, rated visually after about 3 weeks vs untreated controls
In short: as §1

Matricaria inodora [6] = test: Post-emergence herbicidal action; details: rated visually after about 3 weeks vs untreated controls
In short: as §1

Alopecurus myosuroides [7] = test: Post-emergence herbicidal action; details: rated visually after about 3 weeks vs untreated controls
In short: as §1

Viola tricolor [8] = test: Post-emergence herbicidal action; details: application rate 5 g/ha
In short: as §1

Veronica persica [9] = test: Post-emergence herbicidal action
In short: as §1

Abutilon theophrasti [10] = test: Post-emergence herbicidal action; details: rated visually after about 3 weeks vs untreated controls
In short: as §1

Digitaria sanguinalis [11] = test: Post-emergence herbicidal action; details: rated visually after about 3 weeks vs untreated controls
In short: as §1

Stellaria media = test: Post-emergence herbicidal action; details: application rate 5 g/ha, rated visually after about 3 weeks vs untreated controls
In short: as §1

Oryza sativa = test: Post-emergence crop plant compatibility; details: application rate 5 g/ha
Procedure: a. Post-Emergence Herbicidal Action and Crop Plant Compatibility
Seeds of monocotyledonous and dicotyledonous weeds and crop plants were placed in sandy loam in plastic or wood-fiber pots, covered with soil and cultivated in a greenhouse under controlled growth conditions. 2 to 3 weeks after sowing, the test plants were treated at the one-leaf stage. The compounds of the invention, formulated in the form of wettable powders (WP) or as emulsion concentrates (EC), were then sprayed onto the green parts of the plants as aqueous suspension or emulsion with addition of 0.5% additive at a water application rate of 600 l/ha (converted). After the test plants had been kept in the greenhouse under optimum growth conditions for about 3 weeks, the activity of the preparations was rated visually in comparison to untreated controls. For example, 100% activity=the plants have died, 0% activity=like control plants.
Tables A16 to A19 below show the crop plant compatibilities of selected compounds of the general formula (I) according to Tables I.1 to I.36 at an application rate corresponding to 5 g/ha or 20 g/ha, which were obtained in experiments according to the experimental procedure mentioned above. Here, the observed effects on selected crop plants are stated in comparison to the untreated controls (values in %).

Pharbitis purpurea [12] = test: Pre-emergence herbicidal action; details: application rate 20 g/ha
Excerpt: (§2) B. Pre-Emergence Herbicidal Action and Crop Plant Compatibility Seeds of monocotyledonous and dicotyledonous weed plants and crop plants were placed in plastic or organic planting pots and covered with soil. The compounds of the invention, formulated in the form of wettable powders (WP) or as emulsion concentrates (EC), were then applied to the surface of the covering soil as aqueous suspension or emulsion with addition of 0.5% additive at a water application rate equivalent to 600 l/ha (converted). After the treatment, the pots were placed in a greenhouse and kept under good growth conditions for the test plants. After about 3 weeks, the effect of the preparations was scored visually in comparison with untreated controls as percentages. For example, 100% activity=the plants have died, 0% activity=like control plants. Tables B1 to B13 below show the effects of selected compounds of the general formula (I) according to Tables I.1 to I.36 on various harmful plants and at an application rate corresponding to 80 g/ha or less, which were obtained by the experimental procedure mentioned above.

Echinochloa crus-galli [13] = test: Pre-emergence herbicidal action; details: application rate 20 g/ha
Excerpt: as §2

Avena fatua = test: Pre-emergence herbicidal action; details: application rate 80 g/ha
Excerpt: as §2

Amaranthus retroflexus [14] = test: Pre-emergence herbicidal action; details: application rate 20 g/ha
Excerpt: as §2

Polygonum convolvulus [15] = test: Pre-emergence herbicidal action; details: application rate 20 g/ha
Excerpt: as §2

Lolium rigidum = test: Pre-emergence herbicidal action; details: application rate 80 g/ha
Excerpt: as §2

Setaria viridis [16] = test: Pre-emergence herbicidal action; details: application rate 20 g/ha
Excerpt: as §2

Matricaria inodora [17] = test: Pre-emergence herbicidal action; details: application rate 20 g/ha
Excerpt: as §2

Alopecurus myosuroides [18] = test: Pre-emergence herbicidal action; details: application rate 80 g/ha
Excerpt: as §2

Viola tricolor [19] = test: Pre-emergence herbicidal action; details: application rate 20 g/ha
Excerpt: as §2

Veronica persica [20] = test: Pre-emergence herbicidal action; details: application rate 20 g/ha
Excerpt: as §2

Abutilon theophrasti [21] = test: Pre-emergence herbicidal action; details: application rate 20 g/ha
Excerpt: as §2

Digitaria sanguinalis [22] = test: Pre-emergence herbicidal action; details: application rate 20 g/ha
Excerpt: as §2

SMILES	Pharbitis purpurea (efficacy in %) (Pharbitis purpurea [1]) [%]	Echinochloa crus-galli (efficacy in %) (Echinochloa crus-galli [2]; application rate 5 g/ha) [%]	Hordeum murinum (efficacy in %) (Hordeum murinum) [%]	Polygonum convolvulus (efficacy in %) (Polygonum convolvulus [4]) [%]	Setaria viridis (efficacy in %) (Setaria viridis [5]) [%]	Viola tricolor (efficacy in %) (Viola tricolor [8]) [%]	Veronica persica (efficacy in %) (Veronica persica [9]; application rate 20 g/ha) [%]	Digitaria sanguinalis (efficacy in %) (Digitaria sanguinalis [11]; application rate 20 g/ha) [%]	Stellaria media (efficacy in %) (Stellaria media) [%]	Oryza sativa (efficacy in %) (Oryza sativa) [%]	Amaranthus retroflexus (efficacy in %) (Amaranthus retroflexus [3]; application rate 5 g/ha) [%]	Matricaria inodora (efficacy in %) (Matricaria inodora [6]; application rate 5 g/ha) [%]	Veronica persica (efficacy in %) (Veronica persica [9]; application rate 5 g/ha) [%]	Abutilon theophrasti (efficacy in %) (Abutilon theophrasti [10]; application rate 5 g/ha) [%]	Pharbitis purpurea (efficacy in %) (Pharbitis purpurea [12]) [%]	Echinochloa crus-galli (efficacy in %) (Echinochloa crus-galli [13]) [%]	Avena fatua (efficacy in %) (Avena fatua) [%]	Amaranthus retroflexus (efficacy in %) (Amaranthus retroflexus [14]) [%]	Polygonum convolvulus (efficacy in %) (Polygonum convolvulus [15]) [%]	Lolium rigidum (efficacy in %) (Lolium rigidum) [%]	further results
Cn1c(C(F)(F)F)cc(=O)n(-c2cc(Sc3cccnc3SCC(=O)OCC#N)c(Cl)cc2F)c1=O [I.10-176]	90	100	80	100	100	100	80	100	100	20											Amaranthus retroflexus (efficacy in %) (Amaranthus retroflexus [3]; application rate 20 g/ha): 100%; Matricaria inodora (efficacy in %) (Matricaria inodora [6]; application rate 20 g/ha): 100%; Alopecurus myosuroides (efficacy in %) (Alopecurus myosuroides [7]; application rate 5 g/ha): 80%; Abutilon theophrasti (efficacy in %) (Abutilon theophrasti [10]; application rate 20 g/ha): 100%
CSCCOC(=O)COc1ncccc1Oc1cc(-n2c(=O)cc(C(F)(F)F)n(C)c2=O)c(F)cc1Cl [I.15-31]	100									20	100	100	100	100	100	100	100	100	100	100	Digitaria sanguinalis (efficacy in %) (Digitaria sanguinalis [11]; application rate 5 g/ha): 100%; Setaria viridis (efficacy in %) (Setaria viridis [16]): 100%; Matricaria inodora (efficacy in %) (Matricaria inodora [17]): 100%; Alopecurus myosuroides (efficacy in %) (Alopecurus myosuroides [18]): 100%; Viola tricolor (efficacy in %) (Viola tricolor [19]): 100%; Veronica persica (efficacy in %) (Veronica persica [20]): 100%; Abutilon theophrasti (efficacy in %) (Abutilon theophrasti [21]): 100%; Digitaria sanguinalis (efficacy in %) (Digitaria sanguinalis [22]): 100%
Cn1c(C(F)(F)F)cc(=O)n(-c2cc(Oc3cccnc3OCC(=O)OCc3ccncc3)c(Cl)cc2F)c1=O [I.15-288]	100	100								0	100	90	100	100	100	80	100	100	100	100	Setaria viridis (efficacy in %) (Setaria viridis [16]): 100%; Matricaria inodora (efficacy in %) (Matricaria inodora [17]): 100%; Alopecurus myosuroides (efficacy in %) (Alopecurus myosuroides [18]): 100%; Viola tricolor (efficacy in %) (Viola tricolor [19]): 100%; Veronica persica (efficacy in %) (Veronica persica [20]): 100%; Abutilon theophrasti (efficacy in %) (Abutilon theophrasti [21]): 100%; Digitaria sanguinalis (efficacy in %) (Digitaria sanguinalis [22]): 100%
Cn1c(C(F)(F)F)cc(=O)n(-c2cc(Sc3cccnc3SCC(=O)OC3COC3)c(Cl)cc2F)c1=O [I.10-115]	100		80	100	100	100	100	100	100	20	100	90		100							Echinochloa crus-galli (efficacy in %) (Echinochloa crus-galli [2]; application rate 20 g/ha): 100%; Alopecurus myosuroides (efficacy in %) (Alopecurus myosuroides [7]; application rate 20 g/ha): 80%
